Results from patent US10624893B2 (priority 2016, dated 2020).
Converted amounts (≈) assume the structure as drawn. Where two headings read alike, the source gives them in different places.

System: M. tuberculosis drug resistant strains
Test: microbe, parasite or virus in culture
Assay type: cell-based
Settings: Mycobacterium tuberculosis, cholesterol medium

`Cc1cccc(OC2CCN(Cc3cc(=O)[nH]c(=O)[nH]3)CC2)c1C` [Test Compound, 6-((4-(2,3-dimethylphenoxy)piperidin-1-yl)methyl)pyrimidine-2,4(1H,3H)-dione] was tested, and the MIC (ERDMAN, strain Erdman, DS, read-out: MIC 1) was 0.78 µM (≈ 0.257 µg/mL), the MIC (ERDMAN, strain Erdman, DS, read-out: MIC 2) was 0.6 µM (≈ 0.198 µg/mL) and the MIC (H37RV, strain H37Rv, DS, read-out: MIC 2) was 0.39 µM (≈ 0.128 µg/mL). The MIC ([…], read-out: MIC 2) was 0.6 µM (≈ 0.198 µg/mL), the MIC (strain CDC1551, DS, read-out: MIC 1) was 0.78 µM (≈ 0.257 µg/mL) and the MIC (strain CDC1551, DS, read-out: MIC 2) was 0.39 µM (≈ 0.128 µg/mL). The MIC (strain HN878, DS, read-out: MIC 1) was 0.78 µM (≈ 0.257 µg/mL), the MIC (strain HN878, DS, read-out: MIC 2) was 0.6 µM (≈ 0.198 µg/mL) and the MIC (strain K03b00DS, DS, read-out: MIC 1) was 0.3 µM (≈ 0.0988 µg/mL). It also gave an MIC (strain K03b00DS, DS, read-out: MIC 2) of 0.2 µM (≈ 0.0659 µg/mL), an MIC (strain K04b00DS, DS, read-out: MIC 1) of 0.39 µM (≈ 0.128 µg/mL) and an MIC (strain K07b00DS, DS, read-out: MIC 1) of 0.6 µM (≈ 0.198 µg/mL). The MIC (strain K07b00DS, DS, read-out: MIC 2) was 0.39 µM (≈ 0.128 µg/mL), the MIC (strain K08b00DS, DS, read-out: MIC 1) was 0.6 µM (≈ 0.198 µg/mL) and the MIC (strain K08b00DS, DS, read-out: MIC 2) was 0.39 µM (≈ 0.128 µg/mL). It also gave an MIC (strain K11b00DS, DS, read-out: MIC 2) of 0.78 µM (≈ 0.257 µg/mL), an MIC (strain K12b00DS, DS, read-out: MIC 1) of 0.2 µM (≈ 0.0659 µg/mL) and an MIC (strain K12b00DS, DS, read-out: MIC 2) of 0.6 µM (≈ 0.198 µg/mL). The MIC (strain K13b00DS, DS, read-out: MIC 1) was 0.78 µM (≈ 0.257 µg/mL), the MIC (strain K13b00DS, DS, read-out: MIC 2) was 0.6 µM (≈ 0.198 µg/mL) and the MIC (strain K14b00DS, DS, read-out: MIC 2) was 0.6 µM (≈ 0.198 µg/mL). The MIC (strain K16b00DS, DS, read-out: MIC 1) was 0.39 µM (≈ 0.128 µg/mL), the MIC (strain K16b00DS, DS, read-out: MIC 2) was 0.2 µM (≈ 0.0659 µg/mL) and the MIC (strain K35b00DS, DS, read-out: MIC 1) was 0.6 µM (≈ 0.198 µg/mL). It also gave an MIC (strain K35b00DS, DS, read-out: MIC 2) of 0.39 µM (≈ 0.128 µg/mL), an MIC (strain NIH_G1DS, DS, read-out: MIC 1) of 0.78 µM (≈ 0.257 µg/mL) and an MIC (strain NIH_G1DS, DS, read-out: MIC 2) of 0.39 µM (≈ 0.128 µg/mL). It also gave an MIC (strain NIH_G12, read-out: MIC 1) of 0.78 µM (≈ 0.257 µg/mL) and an MIC (strain NIH_G13, read-out: MIC 1) of 0.6 µM (≈ 0.198 µg/mL).
